BigSolDB 2.1

COC(=O)[C@H](N)c1ccc(O)cc1
Conditions | solubility (mole fraction)
in ethanol, 283.15 K | 0.00129
in ethanol, 288.13 K | 0.00179
in ethanol, 293.15 K | 0.0024
in ethanol, 298.17 K | 0.00318
in ethanol, 303.15 K | 0.00411
in ethanol, 308.2 K | 0.00522
in ethanol, 313.15 K | 0.00652
in ethanol, 318.1 K | 0.008
in ethanol, 323.15 K | 0.00968
in ethyl acetate, 283.15 K | 0.000154
in ethyl acetate, 288.17 K | 0.00029
in ethyl acetate, 293.15 K | 0.000479
in ethyl acetate, 298.15 K | 0.000761
in ethyl acetate, 303.16 K | 0.00113
in ethyl acetate, 308.15 K | 0.00158
in ethyl acetate, 313.15 K | 0.00209
in ethyl acetate, 318.18 K | 0.00261
in ethyl acetate, 323.15 K | 0.00311
in isopropanol, 283.15 K | 0.000167
in isopropanol, 288.2 K | 0.000327
in isopropanol, 293.14 K | 0.000576
in isopropanol, 298.15 K | 0.000976
in isopropanol, 303.15 K | 0.00163
in isopropanol, 308.2 K | 0.00258
in isopropanol, 313.2 K | 0.00368
in isopropanol, 318.15 K | 0.00517
in isopropanol, 323.15 K | 0.00677
in isopropyl acetate, 283.17 K | 4.68e-05
in isopropyl acetate, 288.15 K | 8.53e-05
in isopropyl acetate, 293.14 K | 0.000146
in isopropyl acetate, 298.15 K | 0.000237
in isopropyl acetate, 303.13 K | 0.00037
in isopropyl acetate, 308.15 K | 0.000555
in isopropyl acetate, 313.15 K | 0.0008
in isopropyl acetate, 318.15 K | 0.00111
in isopropyl acetate, 323.15 K | 0.00149
in methanol, 283.1 K | 0.00221
in methanol, 288.15 K | 0.00273
in methanol, 293.24 K | 0.00338
in methanol, 298.1 K | 0.00415
in methanol, 303.15 K | 0.00505
in methanol, 308.2 K | 0.00611
in methanol, 313.2 K | 0.00732
in methanol, 318.15 K | 0.00872
in methanol, 323.2 K | 0.0103
in methyl acetate, 283.12 K | 0.000417
in methyl acetate, 288.2 K | 0.000578
in methyl acetate, 293.17 K | 0.000914
in methyl acetate, 298.14 K | 0.00136
in methyl acetate, 303.15 K | 0.0019
in methyl acetate, 308.15 K | 0.00253
in methyl acetate, 313.15 K | 0.0032
in methyl acetate, 318.15 K | 0.00385
in methyl acetate, 323.15 K | 0.00444
in n-butanol, 283.15 K | 0.000489
in n-butanol, 288.2 K | 0.000737
in n-butanol, 293.17 K | 0.00114
in n-butanol, 298.18 K | 0.00164
in n-butanol, 303.15 K | 0.00224
in n-butanol, 308.2 K | 0.00308
in n-butanol, 313.15 K | 0.00418
in n-butanol, 318.15 K | 0.00561
in n-butanol, 323.15 K | 0.00733
in n-butyl acetate, 283.1 K | 5.67e-05
in n-butyl acetate, 288.15 K | 8.11e-05
in n-butyl acetate, 293.15 K | 0.000116
in n-butyl acetate, 298.17 K | 0.000165
in n-butyl acetate, 303.15 K | 0.000233
in n-butyl acetate, 308.15 K | 0.000326
in n-butyl acetate, 313.14 K | 0.000456
in n-butyl acetate, 318.15 K | 0.000626
in n-butyl acetate, 323.12 K | 0.000873
in n-pentanol, 283.14 K | 6.94e-05
in n-pentanol, 288.2 K | 0.000156
in n-pentanol, 293.15 K | 0.000322
in n-pentanol, 298.15 K | 0.000606
in n-pentanol, 303.15 K | 0.00107
in n-pentanol, 308.14 K | 0.00177
in n-pentanol, 313.15 K | 0.00273
in n-pentanol, 318.15 K | 0.00399
in n-pentanol, 323.15 K | 0.00549
in n-propanol, 283.13 K | 0.000939
in n-propanol, 288.2 K | 0.00127
in n-propanol, 293.15 K | 0.00173
in n-propanol, 298.13 K | 0.00226
in n-propanol, 303.15 K | 0.00295
in n-propanol, 308.15 K | 0.00382
in n-propanol, 313.15 K | 0.0049
in n-propanol, 318.2 K | 0.00624
in n-propanol, 323.15 K | 0.00787
in n-propyl acetate, 283.15 K | 6.95e-05
in n-propyl acetate, 288.14 K | 0.000135
in n-propyl acetate, 293.17 K | 0.000242
in n-propyl acetate, 298.2 K | 0.000415
in n-propyl acetate, 303.15 K | 0.000663
in n-propyl acetate, 308.15 K | 0.00102
in n-propyl acetate, 313.15 K | 0.0015
in n-propyl acetate, 318.15 K | 0.00203
in n-propyl acetate, 323.15 K | 0.00275
in water, 283.13 K | 1.9e-05
in water, 288.16 K | 2.8e-05
in water, 293.15 K | 4.81e-05
in water, 298.15 K | 7.86e-05
in water, 303.18 K | 0.000123
in water, 308.15 K | 0.000177
in water, 313.2 K | 0.000232
in water, 318.15 K | 0.0003
in water, 323.15 K | 0.00037
